Reference: ChEMBL document CHEMBL4325881, “Facile synthesis of 2-aryl 5-hydroxy benzo[d]oxazoles and their in vitro anti-proliferative effects on various cancer cell lines” (Bioorg Med Chem Lett, 2018)

Key:
HaCaT = test: Cytotoxicity against human HaCaT cells assessed as reduction in cell viability after 48 hrs by MTT assay; type: cell-based
A549 = test: Cytotoxicity against human A549 cells assessed as reduction in cell viability after 48 hrs by MTT assay; type: functional, cell-based; conditions: A549, 48 h
[1] = Cytotoxicity against human […] cells assessed as reduction in cell viability after 48 hrs by MTT assay; type: functional, cell-based
HepG2 = test: Cytotoxicity against human HepG2 cells assessed as reduction in cell viability after 48 hrs by MTT assay; type: functional, cell-based; conditions: HepG2, 48 h
MDA-MB-231 = test: Cytotoxicity against human MDA-MB-231 cells assessed as reduction in cell viability after 48 hrs by MTT assay; type: functional, cell-based; conditions: MDA-MB-231, 48 h
HeLa = test: Cytotoxicity against human HeLa cells assessed as reduction in cell viability after 48 hrs by MTT assay; type: functional, cell-based

| SMILES | IC50 (HaCaT) | IC50 (A549) | IC50 [1] | IC50 (HepG2) | IC50 (MDA-MB-231) | IC50 (HeLa) |
| --- | --- | --- | --- | --- | --- | --- |
| O=Cc1c(O)ccc2oc(-c3cccc4ccccc34)nc12 | 10.7 µM | 28.4 µM | 21.2 µM | 27.7 µM | 31.2 µM | 30.1 µM |
| COc1cc(OC)cc(-c2nc3c(C=O)c(O)ccc3o2)c1 | 17.6 µM | 30.3 µM | 30.5 µM | 21.4 µM | 34.1 µM | 25.3 µM |
| COc1cccc2c1C(=O)c1c(O)c3c(c(O)c1C2=O)C[C@@](O)(C(=O)CO)C[C@@H]3O[C@H]1C[C@H](N)[C@H](O)[C@H](C)O1 [DOXORUBICIN] | 0.52 µM | 0.34 µM | 1.57 µM | 0.52 µM | – | 0.11 µM |
| CC(=O)c1c(O)ccc2oc(-c3ccccc3)nc12 | > 30 µM | > 30 µM | > 30 µM | > 30 µM | > 30 µM | > 30 µM |
| COc1ccccc1-c1nc2c(C=O)c(O)ccc2o1 | 8.38 µM | 2.8 µM | 10.4 µM | 10.8 µM | 5.95 µM | 8.08 µM |
